Tests used:
[1] = biological target: T1, m1 muscarinic receptor subtype (Homo sapiens, UniProt P11229); assay: R-SAT assay, muscarinic receptor subtype m1; assay type: cell-based; conditions: transfected NIH-3T3 cells, 5 days; for m1 % Eff: relative to maximum response to carbachol
T1 construct: expressed in transfected cells; host or cells: NIH-3T3 (ATCC CRL 1658)
T1 sequence (P11229 1-460): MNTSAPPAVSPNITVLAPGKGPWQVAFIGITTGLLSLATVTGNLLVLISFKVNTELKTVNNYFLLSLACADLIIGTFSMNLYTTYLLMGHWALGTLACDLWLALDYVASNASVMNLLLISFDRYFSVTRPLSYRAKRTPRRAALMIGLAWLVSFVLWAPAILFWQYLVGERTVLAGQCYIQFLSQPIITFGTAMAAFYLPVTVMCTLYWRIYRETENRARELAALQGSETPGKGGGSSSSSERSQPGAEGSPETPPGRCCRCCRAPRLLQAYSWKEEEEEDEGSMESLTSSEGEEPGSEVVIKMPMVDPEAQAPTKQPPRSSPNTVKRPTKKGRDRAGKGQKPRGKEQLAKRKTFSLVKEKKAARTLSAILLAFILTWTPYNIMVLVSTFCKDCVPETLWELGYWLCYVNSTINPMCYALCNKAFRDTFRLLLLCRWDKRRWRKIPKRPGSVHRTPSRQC
Method: (§1) Transfected cells were grown in the presence of between 1 nM and 40 μM of the test compound for 5 days. On day 5, the cells were lysed using 0.5% Nonidet-P and β-galactosidase expression was quantified using the chromogenic substrate o-nitrophenyl-β-D-galactoside (ONGP).
(§2) Data were normalized relative to the maximum response of the cells to the muscarinic agonist carbachol, and the following equation was fitted to the data: • response=minimum+(maximum−minimum)/(1+(EC50/[ligand])) • Where [ligand]=ligand concentration. • % Efficacy was defined as: • (maximum−minimum)/(maximum response of cells to carbachol). • pEC50=−log (EC50). • Where data gave a bell-shaped curve, “maximum” was defined as the highest observed response.

[2] = biological target: T2, m3 muscarinic receptor subtype (Homo sapiens, UniProt P20309); assay: R-SAT assay, muscarinic receptor subtype m3; assay type: cell-based; conditions: transfected NIH-3T3 cells, 5 days, relative to maximum response to carbachol
T2 construct: expressed in transfected cells; host or cells: NIH-3T3 (ATCC CRL 1658)
T2 sequence (P20309 whole entry): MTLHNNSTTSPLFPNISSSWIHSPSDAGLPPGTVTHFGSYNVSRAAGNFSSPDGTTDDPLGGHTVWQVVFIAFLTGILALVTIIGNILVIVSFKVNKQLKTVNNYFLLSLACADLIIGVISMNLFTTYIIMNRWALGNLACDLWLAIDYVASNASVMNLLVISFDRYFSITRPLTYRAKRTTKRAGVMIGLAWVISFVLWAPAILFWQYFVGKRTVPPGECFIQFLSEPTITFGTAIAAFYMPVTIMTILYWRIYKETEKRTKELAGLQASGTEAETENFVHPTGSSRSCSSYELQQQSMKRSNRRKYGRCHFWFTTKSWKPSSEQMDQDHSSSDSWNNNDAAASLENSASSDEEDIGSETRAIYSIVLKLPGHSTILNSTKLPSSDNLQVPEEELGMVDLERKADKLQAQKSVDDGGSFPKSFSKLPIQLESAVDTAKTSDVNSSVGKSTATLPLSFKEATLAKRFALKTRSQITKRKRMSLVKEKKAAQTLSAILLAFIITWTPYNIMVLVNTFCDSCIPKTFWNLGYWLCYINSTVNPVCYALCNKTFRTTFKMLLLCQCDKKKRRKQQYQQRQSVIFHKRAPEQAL
Method: (§3) Screening Of Test Compounds In An Assay Using Muscarinic Receptor Subtypes m1, m2, m3, m4 and m5. The m1, m2, m3, m4 and m5 muscarinic receptor subtypes were cloned substantially as described by Bonner et al., Science […] and Bonner et al., Neuron 1:403 (1988). R-SAT assays were carried out substantially as described in U.S. Pat. Nos. 5,707,798, 5,912,132, and 5,955,281, and by Braüner-Osborne & Brann, Eur. J. Pharmacol. 295:93 (1995). NIH-3T3 cells (available from the American Type Culture Collection as ATCC CRL 1658) were transfected with plasmid DNA encoding the m1, m2, m3, m4 or m5 receptors and plasmid DNA encoding β-galactosidase. Transfected cells were grown in the presence of between 1 nM and 40 μM of the test compound for 5 days. On day 5, the cells were lysed using 0.5% Nonidet-P and β-galactosidase expression was quantified using the chromogenic substrate o-nitrophenyl-β-D-galactoside (ONGP).
as §2

[3] = biological target: T3, m5 muscarinic receptor subtype (Homo sapiens, UniProt P08912); assay: R-SAT assay, muscarinic receptor subtype m5; assay type: cell-based; conditions: transfected NIH-3T3 cells, 5 days; for m5 % Eff: relative to maximum response to carbachol
T3 construct: expressed in transfected cells; host or cells: NIH-3T3 (ATCC CRL 1658)
T3 sequence (P08912 1-532): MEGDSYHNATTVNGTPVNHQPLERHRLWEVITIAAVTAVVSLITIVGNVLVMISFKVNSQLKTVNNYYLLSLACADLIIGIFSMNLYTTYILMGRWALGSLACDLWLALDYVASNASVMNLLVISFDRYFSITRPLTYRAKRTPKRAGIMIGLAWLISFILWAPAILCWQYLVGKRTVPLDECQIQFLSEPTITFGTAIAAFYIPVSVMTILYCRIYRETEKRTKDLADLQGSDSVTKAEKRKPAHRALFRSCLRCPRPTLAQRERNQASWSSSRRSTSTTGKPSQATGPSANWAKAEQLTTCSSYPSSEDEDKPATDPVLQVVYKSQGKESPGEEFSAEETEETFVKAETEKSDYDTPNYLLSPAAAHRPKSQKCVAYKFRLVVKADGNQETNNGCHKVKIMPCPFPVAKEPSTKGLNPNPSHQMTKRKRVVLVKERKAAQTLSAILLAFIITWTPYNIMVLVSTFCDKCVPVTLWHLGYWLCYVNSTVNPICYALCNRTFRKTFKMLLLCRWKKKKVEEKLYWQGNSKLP
Method: as §3, §2

[4] = system: Glaucomatous Monkeys; assay: Intraocular pressure in glaucomatous monkeys (laser-induced unilateral ocular hypertension); assay type: in vivo, cynomolgus monkeys (Macacca fascicularis); conditions: conscious monkeys
Method: Effects of Compound 35AKU-21 on Intaocular Pressure in Primates. All studies were conducted in fully conscious female cynomolgus monkeys (Macacca fascicularis) weighing 3-4 kg. Unilateral ocular hypertension was produced by argon laser photocoagulation to the mid-trabecular meshwork (Sawyer & McGuigan, Invest. Ophthalmol. Vis. Sci. 29:81(1988)).
Animals were trained to allow measuring intraocular pressure (IOP) with a model 30 Classic pneumatonometer (Mentor O&O Co.). Throughout each study, monkeys sat in specially designed chairs (Primate Products, San Francisco) and fed fruits and juices as needed.
The drug was administered topically. The drug was formulated in an aqueous solution such as distilled water, saline or citrate buffer at a pH 5-7 and applied unilaterally as a 35 μL drop; the contralateral eye received an equal volume of saline (or vehicle). Two baseline measurements were made prior to administration of the drug, followed by periodic measurements up to 6 hours post drug administration.

[5] = biological target: T4, m4 muscarinic receptor subtype (Homo sapiens, UniProt P08173); assay: R-SAT assay, muscarinic receptor subtype m4; assay type: cell-based; conditions: transfected NIH-3T3 cells, 5 days; for m4 % Eff: relative to maximum response to carbachol
T4 construct: expressed in transfected cells; host or cells: NIH-3T3 (ATCC CRL 1658)
T4 sequence (P08173 1-479): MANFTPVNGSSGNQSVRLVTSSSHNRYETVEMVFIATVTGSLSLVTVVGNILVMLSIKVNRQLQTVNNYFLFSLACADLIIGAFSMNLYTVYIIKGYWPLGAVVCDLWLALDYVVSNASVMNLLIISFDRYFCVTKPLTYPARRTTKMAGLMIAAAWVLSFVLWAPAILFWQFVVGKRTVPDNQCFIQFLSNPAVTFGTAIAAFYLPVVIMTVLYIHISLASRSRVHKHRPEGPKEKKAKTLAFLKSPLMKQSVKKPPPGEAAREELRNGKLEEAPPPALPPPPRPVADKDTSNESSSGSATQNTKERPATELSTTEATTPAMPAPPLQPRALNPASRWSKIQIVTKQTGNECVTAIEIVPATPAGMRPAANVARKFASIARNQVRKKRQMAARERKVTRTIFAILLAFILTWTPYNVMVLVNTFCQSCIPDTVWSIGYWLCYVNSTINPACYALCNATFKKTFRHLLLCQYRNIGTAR
Method: as §1, §2

[6] = biological target: T5, m2 muscarinic receptor subtype (Homo sapiens, UniProt P08172); assay: R-SAT assay, muscarinic receptor subtype m2; assay type: cell-based; conditions: transfected NIH-3T3 cells, 5 days, relative to maximum response to carbachol
T5 construct: expressed in transfected cells; host or cells: NIH-3T3 (ATCC CRL 1658)
T5 sequence (P08172 1-466): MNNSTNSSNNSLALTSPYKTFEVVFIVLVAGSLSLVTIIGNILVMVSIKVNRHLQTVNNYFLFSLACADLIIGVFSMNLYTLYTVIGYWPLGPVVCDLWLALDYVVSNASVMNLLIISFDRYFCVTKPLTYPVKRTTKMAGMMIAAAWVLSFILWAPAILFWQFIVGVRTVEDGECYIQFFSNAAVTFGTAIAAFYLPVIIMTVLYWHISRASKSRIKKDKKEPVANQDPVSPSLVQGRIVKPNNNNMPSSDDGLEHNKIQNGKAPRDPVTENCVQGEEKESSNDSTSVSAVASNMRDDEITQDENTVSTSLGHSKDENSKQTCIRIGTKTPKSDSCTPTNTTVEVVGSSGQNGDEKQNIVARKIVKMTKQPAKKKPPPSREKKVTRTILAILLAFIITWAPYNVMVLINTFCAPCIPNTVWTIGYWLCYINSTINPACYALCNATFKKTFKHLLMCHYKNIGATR
Method: as §3, §2

[7] = in vivo; cited from earlier work

Row | SMILES | m1 pEC50 [1] | m1 % Eff [1] | m3 % Eff [2] | m5 % Eff [3] | % IOP Change ([4]; 1 HR after topical 35 μL drop) | % IOP Change ([4]; 2 HR after topical 35 μL drop) | % IOP Change ([4]; 4 HR after topical 35 μL drop) | % IOP Change ([4]; 6 HR after topical 35 μL drop) | m4 pEC50 [5] | m4 % Eff [5] | m2 % Eff [6] | patients with elevated liver transaminases (hepatotoxicity) [7] | EC50 ([1]; read-out: m1 pEC50 (converted)) | EC50 ([3]; read-out: m5 pEC50 (converted)) | EC50 ([5]; read-out: m4 pEC50 (converted))
1 | CCCCC1CCN(CCCn2ncc3ccccc32)CC1 [Example 19, 1-(3-(4-n-Butylpiperidine)-1-yl-propyl)-4H-indazole] | 7.3 | 86% | no response (No response: Efficacy <25% maximum response of carbachol. This level of activity is not considered significantly different to no response.) | no response (No response: Efficacy <25% maximum response of carbachol. This level of activity is not considered significantly different to no response.) | −9.3% | −21.3% | −25.9% | −29.2% | 6.5 | 70% | no response (No response: Efficacy <25% maximum response of carbachol. This level of activity is not considered significantly different to no response.) | – | – | – | –
2 | Nc1c2c(nc3ccccc13)CCCC2 [tacrine] | – | – | – | – | – | – | – | – | – | – | – | about 30% | – | – | –
3 | CCCCC1CCN(CCCn2nnc3ccccc32)CC1 [Example 61, 1-[3-(4-Butylpiperidin-1-yl)-propyl]-1H-benzotriazole] | 6.3 | 59% | no response (No response: Efficacy <25% maximum response of carbachol. This level of activity is not considered significantly different to no response.) | no response (No response: Efficacy <25% maximum response of carbachol. This level of activity is not considered significantly different to no response.) | – | – | – | – | 6.0 | 39% | no response (No response: Efficacy <25% maximum response of carbachol. This level of activity is not considered significantly different to no response.) | – | – | – | –
4 | CCCC1CCN(CCCn2ncc3ccccc32)CC1 [Example 41, 1-(3-(4-Propylpiperidine)-1-yl-propyl)-1H-indazole] | – | 81% | no response (No response: Efficacy <25% maximum response of carbachol. This level of activity is not considered significantly different to no response.) | 31% | – | – | – | – | – | 69% | no response (No response: Efficacy <25% maximum response of carbachol. This level of activity is not considered significantly different to no response.) | – | 126 nM | > 3160 nM | 631 nM
5 | CCCCC1CCN(CCCc2nc3c(C)cccc3[nH]2)CC1 [Example 32, 4-Methyl-2-(3-(4-n-butylpiperidine)-1-yl-propyl)-1H-benzoimidazole] | 6.4 | 52% | no response (No response: Efficacy <25% maximum response of carbachol. This level of activity is not considered significantly different to no response.) | no response (No response: Efficacy <25% maximum response of carbachol. This level of activity is not considered significantly different to no response.) | – | – | – | – | – | no response (No response: Efficacy <25% maximum response of carbachol. This level of activity is not considered significantly different to no response.) | no response (No response: Efficacy <25% maximum response of carbachol. This level of activity is not considered significantly different to no response.) | – | – | – | –
